# Experimental data reported in ChEMBL document CHEMBL4627393, “Discovery of Potent, Selective, and State-Dependent NaV1.7 Inhibitors with Robust Oral Efficacy in Pain Models: Structure-Activity Relationship and Optimization of Chroman and Indane Aryl Sulfonamides” (J Med Chem, 2020).
# Assay: Lipophilicity, log D of the compound
# Assay type: physicochemical
# Conditions: octanol/water
row,logD,Structure (SMILES)
1,2,O=S(=O)(Nc1ccncn1)c1ccc2c(c1)OCC[C@@H]2c1ccc(C(F)(F)F)cc1N1CCOCC1
2,2.9,Cc1nc(-c2cc(C(F)(F)F)ccc2[C@@H]2CCOc3cc(S(=O)(=O)Nc4nccs4)ccc32)co1
3,2.8,Cc1nc(-c2cc(C(F)(F)F)ccc2[C@H]2CCOc3cc(S(=O)(=O)Nc4ncc(F)cn4)ccc32)co1
4,2.1,O=C1OCCN1c1cc(C(F)(F)F)ccc1[C@H]1CCOc2cc(S(=O)(=O)Nc3nccs3)ccc21
5,1.8,O=C1COCCN1c1cc(C(F)(F)F)ccc1[C@H]1CCOc2cc(S(=O)(=O)Nc3nccs3)ccc21
6,3.3,O=S(=O)(Nc1nccs1)c1ccc2c(c1)OCC[C@@H]2c1ccc(C(F)(F)F)cc1-c1nccs1
7,4.5,O=S(=O)(Nc1nccs1)c1ccc2c(c1)OCC[C@H]2c1ccc(C(F)(F)F)cc1-c1ccc(F)cc1
8,2.9,O=S(=O)(Nc1ncccn1)c1ccc2c(c1)OCC[C@@H]2c1ccc(C(F)(F)F)cc1-c1ccc(F)cn1
9,3,O=S(=O)(Nc1ccncn1)c1ccc2c(c1)OCC[C@@H]2c1ccc(C(F)(F)F)cc1-c1ccc(F)cn1
10,2.8,O=S(=O)(Nc1ncc(F)cn1)c1ccc2c(c1)OCC[C@@H]2c1ccc(C(F)(F)F)cc1N1CCOCC1
11,2.8,Cc1ccc(-c2cc(C(F)(F)F)ccc2[C@H]2CCc3cc(S(=O)(=O)Nc4ncccn4)ccc32)cn1
12,3.3,O=S(=O)(Nc1nccs1)c1ccc2c(c1)OCC[C@H]2c1ccc(C(F)(F)F)cc1-c1nccs1
13,2.5,Cn1nccc1-c1cc(C(F)(F)F)ccc1[C@H]1CCOc2cc(S(=O)(=O)Nc3ncc(F)cn3)ccc21
14,2.9,Cc1nc(-c2cc(C(F)(F)F)ccc2[C@H]2CCOc3cc(S(=O)(=O)Nc4nccs4)ccc32)co1
15,2.3,O=S(=O)(Nc1ccncn1)c1ccc2c(c1)OCC[C@@H]2c1ccc(C(F)(F)F)cc1-c1ccc(F)nc1
16,3.5,O=S(=O)(Nc1nccs1)c1ccc2c(c1)OCC[C@@H]2c1ccc(C(F)(F)F)cc1-c1ccc(F)cn1

row,logD,Structure (SMILES)
1,2.8,Cc1nc(-c2cc(C(F)(F)F)ccc2[C@H]2CCOc3cc(S(=O)(=O)Nc4ncccn4)ccc32)co1
2,2.2,Cn1nccc1-c1cc(C(F)(F)F)ccc1[C@H]1CCOc2cc(S(=O)(=O)Nc3cccnn3)ccc21
3,2.2,Cn1nccc1-c1cc(C(F)(F)F)ccc1[C@@H]1CCOc2cc(S(=O)(=O)Nc3nccs3)ccc21
4,2.5,Cc1ccc(-c2cc(C(F)(F)F)ccc2[C@H]2CCOc3cc(S(=O)(=O)Nc4ncc(F)cn4)ccc32)cn1
5,4.1,O=S(=O)(Nc1cccc(F)n1)c1ccc2c(c1)OCC[C@@H]2c1ccc(C(F)(F)F)cc1N1CCOCC1
6,2.9,O=S(=O)(Nc1ncccn1)c1ccc2c(c1)CC[C@@H]2c1ccc(C(F)(F)F)cc1N1CCOCC1
7,1.4,O=S(=O)(Nc1nccs1)c1ccc2c(c1)OCC[C@@H]2c1ccc(C(F)(F)F)cc1N1CCNCC1
8,3.2,O=S(=O)(Nc1ncccn1)c1ccc2c(c1)CC[C@@H]2c1ccc(C(F)(F)F)cc1-c1ccc(F)nc1
9,3.7,Cc1ccc(-c2cc(C(F)(F)F)ccc2[C@H]2CCOc3cc(S(=O)(=O)Nc4cccc(F)n4)ccc32)cn1
10,1.8,Cn1nccc1-c1cc(C(F)(F)F)ccc1[C@H]1CCOc2cc(S(=O)(=O)Nc3cnccn3)ccc21
11,4,Cc1nc(-c2cc(C(F)(F)F)ccc2[C@H]2CCOc3cc(S(=O)(=O)Nc4cccc(F)n4)ccc32)co1
12,3,Cc1ccc(-c2cc(C(F)(F)F)ccc2[C@H]2CCOc3cc(S(=O)(=O)Nc4ccncn4)ccc32)cn1
13,4.5,O=S(=O)(Nc1nccs1)c1ccc2c(c1)OCC[C@@H]2c1ccc(C(F)(F)F)cc1-c1ccc(F)cc1
14,3,O=S(=O)(Nc1ncc(F)cn1)c1ccc2c(c1)OCC[C@@H]2c1ccc(C(F)(F)F)cc1-c1ccc(F)cn1
15,2.3,O=S(=O)(Nc1nccs1)c1ccc2c(c1)OCC[C@H]2c1ccc(C(F)(F)F)cc1-n1ccnn1
16,2.5,O=S1(=O)CCN(c2cc(C(F)(F)F)ccc2[C@H]2CCOc3cc(S(=O)(=O)Nc4nccs4)ccc32)CC1
